Data taken from PMC6127852 (Journal of Enzyme Inhibition and Medicinal Chemistry, 2018).

What was measured:
[1] = tested on: polyA-polyU (RNA, polymer) A/U; test: UV-Vis titration, Scatchard; conditions: PBS, I = 0.05 M (Table 1 says I = 0.015 M), cations not specified, I = 0.015 M (Methods: 0.05 M), pH 7, per base
[2] = tested on: A. baumannii ATCC 19606; test: Broth microdilution MIC, A. baumannii ATCC 19606; type: cell-based; conditions: Acinetobacter baumannii, ATCC19606; Table S2
Procedure: (§1) The compounds were evaluated for their in vitro anti-bacterial activity against Gram-positive bacteria: S. aureus (ATCC 25923), MRSA, methicillin-sensitive S. aureus (MSSA), E. faecalis, vancomycin-resistant E. faecium (VREF), and Gram-negative bacteria: E. coli (ATCC 25925), P. aeruginosa (ATCC 27853), A. baumannii (ATCC 19606) and ESBL-producing K. pneumoniae (ATCC 27736). Standard broth microdilution method as recommended in guidelines of Clinical and Laboratory Standards Institute[61] ^, [65] ^, [66] was applied and the minimum inhibitory concentration (MIC) of compounds was tested. In short, testing was performed in U-bottomed 96-well sterile plastic microdilution trays (Falcon 3077, Becton Dickinson Labware, Franklin Lakes, NJ) in cation (Ca^2+ and Mg^2+) adjusted Mueller–Hinton broth medium (Becton Dickinson and Co., Cockeysville, MD). All testings were performed in triplicate.
(§2) The in vitro anti-bacterial activity of 5-amidinobenzimidazoles 7a–7e, 8a–8e, and 9a–9e was tested against Gram-positive bacteria including S. aureus (ATCC 25923), Enterococcus faecalis (ATCC 29212), and Gram-negative bacteria including E. coli (ATCC 25925), K. pneumoniae (ATCC 700803), P. aeruginosa (ATCC 27853), and Acinetobacter baumannii (ATCC 19606).

[3] = tested on: ctDNA; test: Thermal melting (ΔTm) of ctDNA; type: binding, calf; conditions: PBS, pH 7; for ΔTm, ctDNA, r = 0.3: r = [compound]/[polynucleotide] 0.3, error ±0.5 °C
Procedure: (§3) T m experiments were conducted with a Perkin Elmer Lambda 25 spectrophotometer in 1 cm quartz cuvettes. The absorbance of the DNA/RNA-compound complex was monitored at 260 nm as a function of temperature. The absorbance of the ligands was subtracted from every curve, and the absorbance scale was normalised. The ΔT m values were calculated by subtracting T m of the free nucleic acid from T m of the complex. Every reported ΔT m value was the average of at least two measurements. The error of ΔT m is ±0.5 °C. All data were graphed and analysed using Origin software version 9.0.
(§4) Denaturation experiments were carried out at different amounts of the compounds (r = 0.1, 0.3, 0.5, and 0.7 eq; r = [compound]/[polynucleotide]) with ctDNA and polyA-polyU.

[4] = tested on: E. faecium VRE; test: Broth microdilution MIC, VRE clinical strain; type: cell-based; conditions: Enterococcus faecium
Procedure: as §1

[5] = tested on: S. aureus MSSA; test: Broth microdilution MIC, MSSA clinical strain; type: cell-based; conditions: Staphylococcus aureus
Procedure: as §1

[6] = tested on: E. coli ATCC 25925; test: Broth microdilution MIC, E. coli ATCC 25925; type: cell-based; conditions: Escherichia coli, ATCC25925; Table S2
Procedure: as §1, §2

[7] = tested on: polyA-polyU; test: Thermal melting (ΔTm) of polyA-polyU; type: binding; conditions: for ΔTm, polyA-polyU, r = 0.1: PBS, pH 7
Procedure: as §3, §4

[8] = tested on: S. aureus MRSA; test: Broth microdilution MIC, MRSA clinical strain; type: cell-based; conditions: Staphylococcus aureus, antibiotic-resistant clinical strain
Procedure: as §1

[9] = tested on: polyA-polyU (RNA, polymer) A/U; test: UV melting at 260 nm; conditions: PBS, I = 0.05 M, cations not specified, pH 7, r = 0.3 [compound]/[polynucleotide]
[10] = tested on: polyG-polyC (polyC-polyG) (RNA, polymer) G/C; test: UV-Vis titration, Scatchard; conditions: PBS; for log Ks: I = 0.05 M (Table 1 says I = 0.015 M), cations not specified, I = 0.015 M (Methods: 0.05 M), pH 7, per base
[11] = tested on: polyA-polyU; test: UV–Vis titration with polyA-polyU (Scatchard); type: binding; conditions: PBS, pH 7; for Hypochromic effect H/%, polyA-polyU: UV–Vis titration, calculated by Scatchard equation; for log Ks, polyA-polyU: binding constant, Scatchard
Procedure: (§5) Polynucleotides were purchased as follows: polyG–polyC, polyA–polyU (Sigma-Aldrich, St. Louis, MO), calf thymus ctDNA (Aldrich). Polynucleotides were dissolved in PBS buffer, I = 0.05 mol dm^−3, pH 7.0. The calf thymus ctDNA was additionally sonicated and filtered through a […] filter. The polynucleotide concentration was spectroscopically determined as the concentration of nucleobases.
(§6) All UV–Vis absorbance measurements were conducted on a Perkin Elmer Lambda 25 spectrophotometer (Perkin Elmer, Waltham, MA). A quartz cell with a 1 cm path length was used for all absorbance studies. Compound stock solutions were 1 mM. The DNA/RNA at increasing ratios was then titrated into the compound buffer solution (1.48 × 10^−5 mol dm^−3) and the corresponding absorption spectra were recorded under the same conditions. All data were graphed and analysed using Origin software version 9.0 (OriginLab Corporation, Northampton, MA). The stability constants (Ks) and [bound compound]/[polynucleotide phosphate] ratios (n) were calculated according to the Scatchard Equation[63] ^, [64]. Values for Ks and n given in Table 1 all have satisfying correlation coefficients (0.99).
(§7) The binding constants logKs and the density of the binding sites n were calculated using Scatchard plot analysis. In addition, the binding constants Ks for compounds 8b and 8e were calculated only for titration data taken at the r ≥ 0.1, because below that ratio changes in absorption maxima were too small for accurate calculation (ΔA ≤ 0.04) (Table 1). The binding constants Ks and ratios n obtained by processing UV–Vis titration data using the Scatchard equation are summarised in Table 1.

[12] = tested on: K. pneumonia ATCC 700803; test: Broth microdilution MIC, K. pneumoniae ATCC 700803; type: cell-based; conditions: Klebsiella pneumoniae, ATCC700803; Table S2
Procedure: as §1, §2

[13] = tested on: P. aeruginosa ATCC 27853; test: Broth microdilution MIC, P. aeruginosa ATCC 27853; type: cell-based; conditions: Pseudomonas aeruginosa, ATCC27853; Table S2
Procedure: as §1, §2

[14] = tested on: bloodstream form T. brucei (strain 221); test: Anti-trypanosomal screening, resazurin; type: cell-based; conditions: Trypanosoma brucei, mean of triplicate ± SEM
Procedure: Bloodstream form T. brucei (strain 221) were cultured in modified Iscove’s medium, as outlined[67] and trypanocidal assays were performed using 96-well microtitre plates. […] Resazurin was added after 48 h, the plates incubated for a further 16 h, and then read in a Spectramax plate reader (Molecular Devices Corporation, San Jose, CA). The data were analysed using GraphPad Prism (GraphPad, La Jolla, CA). Each drug concentration was tested in triplicate.

[15] = tested on: E. faecalis ATCC 29212; test: Broth microdilution MIC, E. faecalis ATCC 29212; type: cell-based; conditions: Enterococcus faecalis, ATCC29212; Table S2
Procedure: as §1, §2

[16] = tested on: calf thymus ctDNA; test: UV–Vis titration with ctDNA (Scatchard); type: binding; conditions: PBS, pH 7; for Hypochromic effect H/%, ctDNA: UV–Vis titration, calculated by Scatchard equation; for log Ks, ctDNA: binding constant, Scatchard
Procedure: as §5, §6, §7

[17] = tested on: S. aureus ATCC 25923; test: Broth microdilution MIC, S. aureus ATCC 25923; type: cell-based; conditions: Staphylococcus aureus, ATCC25923; Table S2
Procedure: as §1, §2

[18] = tested on: polyC-polyG; test: UV–Vis titration with polyC-polyG (Scatchard); type: binding; conditions: PBS, pH 7; for Hypochromic effect H/%, polyC-polyG: UV–Vis titration, calculated by Scatchard equation; for log Ks, polyC-polyG: binding constant, Scatchard
Procedure: as §5, §6, §7

[19] = r = 0.3, first melting midpoint

Compound | log Ks [1] | MIC [2] | ΔTm, ctDNA, r = 0.5 [3] | ΔTm, ctDNA, r = 0.7 [3] | ΔTm, ctDNA, r = 0.3 [3] | MIC [4] | MIC [5] | MIC [6] | ΔTm, polyA-polyU, r = 0.1 [7] | ΔTm, polyA-polyU, r = 0.3 [7, 19] | MIC [8] | Hypochromic effect H/%, polyA-polyU [11] | log Ks, polyA-polyU [11] | MIC [12] | MIC [13] | IC50 [14] | melting point | MIC [15] | Hypochromic effect H/%, ctDNA [16] | log Ks, ctDNA [16] | further results
Cl.Cl.N=C(N)c1ccc2[nH]c(-c3ccc(OCc4cn(-c5ccccc5Cl)nn4)cc3)nc2c1 [Compound 7c, 2–(4-((1–(2-Chlorophenyl)-1H-1,2,3-triazol-4-yl)methoxy)phenyl)-1H-benz[d]imidazole-5-carboximidamide dihydrochloride] | 5.21 | > 256 µg/mL | 3.20 °C | 3.77 °C | 2.35 °C | 256 µg/mL | 32 µg/mL | 256 µg/mL | 0.20 °C | 2.72 °C | 16 µg/mL | 38.9% | 5.21 | > 256 µg/mL | > 256 µg/mL | > 15 µM | 176 to 177 °C | 64 µg/mL | 36.3% | 6.24 | ΔTm ([9]; error ±0.5, per base): 2.72 °C; binding ([10]; pH 7, changes too small for accurate calculation, compound 14.8 µM): weak; MIC [17]: 64 µg/mL
Cl.Cl.Clc1ccccc1-n1cc(COc2ccc(-c3nc4cc(C5=NCCN5)ccc4[nH]3)cc2)nn1 [Compound 9c, 5–(4,5-Dihydro-1H-imidazol-2-yl)-2–(4-((1–(2-chlorophenyl)-1H-1,2,3-triazol-4-yl)methoxy)phenyl)-1H-benz[d]imidazole dihydrochloride] | 5.38 | > 256 µg/mL | 3.31 °C | 3.80 °C | 3.55 °C | 64 µg/mL | 128 µg/mL | 256 µg/mL | 2.85 °C | 4.27 °C | 8 µg/mL | 29.3% | 5.38 | > 256 µg/mL | > 256 µg/mL | > 15 µM | 194 to 196 °C | 32 µg/mL | 11.7% | 6.43 | Hypochromic effect H/%, polyC-polyG [18]: 5.34%; log Ks, polyC-polyG [18]: 6.43; ΔTm, polyA-polyU, r = 0.3, second melting midpoint ([7]; r = 0.3, footnote c: biphasic melting curve): 13.99 °C; ΔTm ([9]; error ±0.5, biphasic, second midpoint 13.99, per base): 4.27 °C; log Ks [10]: 6.43; MIC [17]: 128 µg/mL
CC(C)NC(=N)c1ccc2[nH]c(-c3ccc(OCc4cn(-c5ccccc5Cl)nn4)cc3)nc2c1.Cl.Cl [Compound 8c, N-isopropyl-2–(4-((1–(2-chlorophenyl)-1H-1,2,3-triazol-4-yl)methoxy)phenyl)-1H-benz[d]imidazole-5-carboximidamide dihydrochloride] | 6.00 | > 256 µg/mL | 3.89 °C | 4.39 °C | 3.40 °C | 32 µg/mL | 16 µg/mL | 256 µg/mL | 0.76 °C | 0.58 °C | 8 µg/mL | 50.4% | 6.00 | > 256 µg/mL | > 256 µg/mL | > 15 µM | 210 to 213 °C | 64 µg/mL | 33.8% | 5.64 | Hypochromic effect H/%, polyC-polyG [18]: 5.31%; log Ks, polyC-polyG [18]: 6.43; ΔTm, polyA-polyU, r = 0.5 ([7]; r = 0.5, first melting midpoint): 1.12 °C; log Ks [10]: 6.43; MIC [17]: 32 µg/mL
